According to ChEMBL document CHEMBL4422667, “Synthetic derivatives of the natural product 13-amino 2-desoxy-4-epi-pulchellin inhibit STAT3 signaling and induce G2/M arrest and death of colon cancer cells” (Bioorg Med Chem Lett, 2019):
Converted amounts (≈) assume the structure as drawn.

Tests used:
[1] = tested on: HCT-116; assay: cells; details: Homo sapiens, HCT-116, 72 h
Description: Cytotoxicity against human HCT116 cells assessed as reduction in cell viability after 72 hrs by MTT assay

[2] = tested on: HT-29; assay: cells; details: Homo sapiens, HT-29, 72 h
Description: Cytotoxicity against human HT-29 cells assessed as reduction in cell viability after 72 hrs by MTT assay

[3] = Aqueous solubility of compound at 25 degC; type: physicochemical; details: water

Row | Structure (SMILES) | IC50 [1] [µM] | IC50 [2] [µM] | solubility [3] [µg/mL]
1 | CNC[C@@H]1C(=O)O[C@H]2C[C@@H](C)[C@@H]3CC[C@H](O)[C@@]3(C)C[C@@H]21 (relative stereo) | > 30 |  | 
2 | CCCCCCNC[C@@H]1C(=O)O[C@H]2C[C@@H](C)[C@@H]3CC[C@H](O)[C@@]3(C)C[C@@H]21 (relative stereo) | > 30 |  | 
3 | C[C@@H]1C[C@@H]2OC(=O)[C@@H](CN3CCC(O)CC3)[C@H]2C[C@]2(C)[C@@H](O)CC[C@@H]12 (relative stereo) | 5.36 | 3.19 | 
4 | C[C@@H]1C[C@@H]2OC(=O)[C@@H](CN3CCC(N(C)C)CC3)[C@H]2C[C@]2(C)[C@@H](O)CC[C@@H]12 (relative stereo) | 12.2 |  | 
5 | C[C@@H]1C[C@@H]2OC(=O)[C@@H](CN3CCOCC3)[C@H]2C[C@]2(C)[C@@H](O)CC[C@@H]12 (relative stereo) | 18.7 |  | 
6 | C=C1C(=O)O[C@H]2C[C@@H](C)[C@@H]3CC[C@H](O)[C@@]3(C)C[C@H]12 [PSEUDOGUAIANOLIDE] | 4.43 | 3.37 | 200 (≈ 799 µM)
7 | CCCNC[C@@H]1C(=O)O[C@H]2C[C@@H](C)[C@@H]3CC[C@H](O)[C@@]3(C)C[C@@H]21 (relative stereo) | > 30 |  | 
8 | CCCCNC[C@@H]1C(=O)O[C@H]2C[C@@H](C)[C@@H]3CC[C@H](O)[C@@]3(C)C[C@@H]21 (relative stereo) | > 30 |  | 
9 | C=C1C(=O)O[C@@H]2C3O[C@]3(C)CC/C=C(\C)CC[C@@H]12 (stereo not given in full) | 4.94 | 3.38 | 
10 | C[C@@H]1C[C@@H]2OC(=O)[C@@H](CNCCN(C)C)[C@H]2C[C@]2(C)[C@@H](O)CC[C@@H]12 (mixture of isomers) | > 30 |  | 
11 | C[C@@H]1C[C@@H]2OC(=O)[C@@H](CN3CCCCC3)[C@H]2C[C@]2(C)[C@@H](O)CC[C@@H]12 (relative stereo) | 8.39 | 3.86 | 
12 | CCN(CC)C[C@@H]1C(=O)O[C@H]2C[C@@H](C)[C@@H]3CC[C@H](O)[C@@]3(C)C[C@@H]21 (relative stereo) | 5.46 | 3.45 | 
13 | C[C@@H]1C[C@@H]2OC(=O)[C@@H](CNCCCN(C)C)[C@H]2C[C@]2(C)[C@@H](O)CC[C@@H]12 (relative stereo) | > 30 |  | 
14 | CC(O)CNC[C@@H]1C(=O)O[C@H]2C[C@@H](C)[C@@H]3CC[C@H](O)[C@@]3(C)C[C@@H]21 (mixture of isomers) | > 30 |  | 
15 | CC(C)NC[C@@H]1C(=O)O[C@H]2C[C@@H](C)[C@@H]3CC[C@H](O)[C@@]3(C)C[C@@H]21 (relative stereo) | 17.8 |  | 
16 | C[C@@H]1C[C@@H]2OC(=O)[C@@H](CNCCCO)[C@H]2C[C@]2(C)[C@@H](O)CC[C@@H]12 (relative stereo) | > 30 |  | 
17 | CCN(C)C[C@@H]1C(=O)O[C@H]2C[C@@H](C)[C@@H]3CC[C@H](O)[C@@]3(C)C[C@@H]21 (relative stereo) | 2.4 | 1.62 | 
18 | C[C@@H]1C[C@@H]2OC(=O)[C@@H](CNCCN3CCCC3)[C@H]2C[C@]2(C)[C@@H](O)CC[C@@H]12 (relative stereo) | 22.8 |  | 
19 | C[C@@H]1C[C@@H]2OC(=O)[C@@H](CN3CCN(C)CC3)[C@H]2C[C@]2(C)[C@@H](O)CC[C@@H]12 (relative stereo) | > 30 |  | 
20 | C[C@@H]1C[C@@H]2OC(=O)[C@@H](CN(C)C)[C@H]2C[C@]2(C)[C@@H](O)CC[C@@H]12 (relative stereo) | 5.18 | 3.31 | 
21 | COC(CNC[C@@H]1C(=O)O[C@H]2C[C@@H](C)[C@@H]3CC[C@H](O)[C@@]3(C)C[C@@H]21)OC (relative stereo) | 27.5 |  | 
22 | C[C@@H]1C[C@@H]2OC(=O)[C@@H](CN3CCNCC3)[C@H]2C[C@]2(C)[C@@H](O)CC[C@@H]12 (relative stereo) | 15.5 |  | 
